The subject of one series is GSDME. The experiment in a line: Western blot of GSDME activation. The series is classed as cell-based, human. To be noted: HepG2 and SK-Hep1 cells. As to the method: (§1) The whole-cell protein was extracted by RIPA lysis buffer contained with protease and phosphatase inhibitor cocktail (MCE, HY-K0010) from cells treated by indole analogues. Proteins were separated by sodium dodecyl sulfate-polyacrylamide gel electrophoresis (SDS-PAGE) gel, and then blotted onto polyvinylidene difluoride membrane (Millipore, IPVH00010). The membranes were incubated with the primary antibodies and the following horseradish peroxidase-conjugated (HRP) secondary antibodies. Next, membranes were washed and developed by ECL regent (Millipore, WBKLS0500).
(In general: Immunoblotting shows a protein as a band on a membrane.)

A further series relates to HepG2 cells. Kind of series: Flow cytometry of propidium iodide and annexin V-FITC staining. The series is classed as cell-based, human. To be noted: HepG2, 4 μM. The text has this: Figure 2 Cytotoxic effect of Tc3 on human hepatic carcinoma cells in vitro. […] (B-C) Cell viability rates of HepG2 (B) and SK-Hep1 (C) cells treated with Tb7, Tc1, Tc3, Tc4 and other clinical chemotherapy drugs. (D-F) Flow cytometry of propidium iodide and annexin V-fluorescein isothiocyanate (FITC)-stained HepG2 cells (D). Statistical analysis of the early apoptotic cells (E) and late apoptotic cells (F). (G-I) Flow cytometry of propidium iodide and annexin V-fluorescein isothiocyanate (FITC)-stained AML-12 cells (G). Statistical analysis of the early apoptotic cells (H) and late apoptotic cells (I). Data are presented as mean ± SD of three independent biological experiments. *p < 0.05, **p < 0.01, ***p < 0.001 and ****p < 0.0001, ns, no significant.

For the next series, the system named is pLKO.1 HepG2 cells. Kind of series: Dose-response growth inhibition, control knockdown cells. The series is classed as cell-based. To be noted: Homo sapiens. The method, then: (§2) The cells were counted with hemocytometer.
(§3) Briefly, the pLKO.1 or shRNA plasmids with psPAX2 and PMD2.G were transfected into HEK-293T cells via DNA transfection reagent (SignaGen®Laboratories, SL100688). And the cell supernatant contained Lenti-virus was collected after 24 hours. The Lenti-virus of shRNAs were used to infect the hepatic carcinoma cells and the stable-transfection cell lines were screened by puromycin (1 μg/mL) (Solarbio, P8230).

The subject of a further series is PRDX1. The experiment in a line: Western blot of PRDX1. Conditions: hepatic carcinoma cells. The series is classed as cell-based, human. As to the method: as §1
The test system of the next series is PERK. The experiment in a line: Western blot of ER stress responders. The series is classed as cell-based, human. Conditions: HepG2 and SK-Hep1 cells. As to the method: as §1
In another series the test system is HepG2 CDXs. The experiment in a line: HepG2 CDXs treatment. The series is classed as in vivo, Balb/c nude mice. Conditions: 20 mg/kg and 40 mg/kg i.p. five times. The text has this:
Balb/c nude mice (female, 6-week-old) were subcutaneously injected with 2 × 10^6 HepG2 cells on the left and right flanks to construct cell-derived xenografts (CDXs). The patient-derived xenografts (PDXs) samples were gifts from Dr Changliang Shan of Nankai University. C57 BL/6N mice (female, 5-week-old) were subcutaneously injected with 2 × 10^6 Hepa1-6 cells mixed with matrigel (ABW, 0827265) on the left and right flanks. The mice were inoculated with hepatic carcinoma CDXs or PDXs for at least four days, and treated (i.p.) by vehicle and Tc3. […] Tumor volume = 4π/3 × (Length/2) × (Width/2)^2. All animal experiments were carried out in accordance with the recommendations of Requirements of the Ethical Review System of Biomedical Research Involving Human by National Health and Family Planning Commission of China and Nankai University Ethics Committee with written informed consent complying with the Declaration of Helsinki (IAEC ID: 2023-STDWLL-000249).

Series [1] in a line: Pharmacokinetic study of vein administration. Conditions: Balb/c mice, intravenous 10 mg/kg. The series is classed as in vivo. The method, then:
Chromatographic conditions employed an ultimate AQ-C18 column (2.1 mm × 50 mm, 5.0 μm) and its temperature was set to 40℃. The mobile phase consisted of methanol and 0.1% formic acid, with a gradient elution program: 0-0.01 min, methanol 15%, 0.01-2 min, methanol 95%, 2-3 min, methanol 15%. The flow rate was set to 0.6 mL/min, the elution time was 3 min and ESI-MS in negative mode MRM was used for quantitative analysis. Masslynx 4.1 software was used for data acquisition and instrument control.
Stock solutions of Tc3 (1.0 mg/mL) and JBHDN (0.1 mg/mL) were prepared in methanol. A series of working solutions (5, 20, 100, 200, 800, 1000 and 2000 ng/mL) were added into blank mouse blood to prepare the standard curves. The JBHDN stock solution was diluted with 5% trichloroacetic acid-methanol to 100 ng/mL. In the same manner as the standard curve, quality control (QC) samples at 10 ng/mL, 450 ng/mL, and 1500 ng/mL were prepared. Next, Balb/c mice were administered intravenously (10 mg/kg). After 5 min, 15 min, 30 min, 1 h, 2 h, 4 h, 8 h, and 24 h, blood samples (20 μL) were collected from the tail vein of mice and mixed with internal standard JBHDN (100 ng/mL). The mixtures were then vortexed for 10 min at 4℃ and centrifuged at 5500 g for 10 min. The supernatant was mixed with 200 μL ultrapure water, and then injected into liquid chromatography-tandem mass spectrometry (LC-MS/MS) system for analysis.

The next series in a line: in vitro. Conditions: microsomes. As to the method: The reaction media contained liver microsomes (0.5 mg/mL), 1.0 mM β-nicotinamide adenine dinucleotide phosphate (β-NADPH), 3 mM MgCl2 phosphate buffer. Microsomal suspensions were pre-incubated with Tc3 for 3 min at 37℃. The reaction was initiated with the addition of β-NADPH and samples were collected at 0, 5, 15, 30 and 60 min. The negative control was excluded of β-NADPH. Midazolam was incubated similarly as a positive control substrate. At each time point, an aliquot was mixed acetonitrile. Samples were centrifuged and then supernatant was mixed with ultrapure water for LC-MS/MS analysis.

A further series has as its system shDFNA5 HepG2 cells. Kind of series: Dose-response growth inhibition, GSDME knockdown cells. The series is classed as cell-based. To be noted: Homo sapiens. The method, then: as §2, §3
The test system of another series is Balb/c mice. Kind of series: Subchronic toxicity test. The series is classed as in vivo. The method, then: And the organ tissues of mice were collected for further H&E staining.
The formalin‐fixed and paraffin‐embedded tissues were cut into 5 μm sections. The sections were firstly soaked in xylene for removing paraffin and soaked in alcohol at decreasing concentration for tapping water. In the H&E staining assay, the sections were stained in Harris’s hematoxylin reagent and eosin reagent in turn. In the IHC staining, the sections were conducted antigen retrieval process and blocked with normal goat serum. Next, sections were incubated with the primary antibodies overnight and incubated with HRP-conjugated secondary antibodies. The tissue images were captured by a microscope.

Consider `CC(C)[C@H](N)C(=O)NCCCn1cc(/C=C2\S/C(=N\c3ccc(N4CCOCC4)cc3)N(Cc3ccc(F)cc3)C2=O)c2ccccc21` [Tc3], for which, in the series with GSDME, the “GSDME activation / cleavage (western blotting)” value is reported as “promoted the cleavage of GSDME”. Also, in the series with HepG2 cells, the “cell death by annexin V / propidium iodide flow cytometry” value was “severe cell death”. The IC50 with pLKO.1 HepG2 cells stood at 2.22 µM. The “expression of PRDX1” value with PRDX1 is “obviously reduced”. The “PERK activation (western blotting)” value in the series on PERK was “activated”. In addition, in the series with HepG2 CDXs, the “growth rate and weight of HepG2 CDX tumors” value is reported as “significantly smaller”. Further, the plasma drug concentration in series [1] (5 min-24 h) is 12.4 to 1417.0 ng/mL. The molecule also displayed an AUC(0-t) in [1] (mouse, whole blood) of 1520 ng·h/mL. In addition, in [1] (mouse, whole blood, read-out: half-life elimination t1/2 (converted)), the half-life is 8.08 h. In “in vitro” (human), this molecule yielded a half-life at 1 μM of 0.825 h and a microsomal CLint at 1 μM of 28 µL/min/mg. For the same molecule, in the series “in vitro” (mouse), the half-life at 1 μM came to 1.93 h and the microsomal CLint at 1 μM turned out to be 12 µL/min/mg. The molecule further yielded an IC50 in the series with shDFNA5 HepG2 cells of 4.77 µM. In addition, in the series with Balb/c mice (60 mg/kg), the “glomerular structure of the kidney (HE staining)” value is given as “slightly damaged”; the “jejunum crypts and villi (HE staining)” value is on record as “severely disrupted”. Moreover, the “weight and health state” value with Balb/c mice (60 mg/kg i.p.) is “lower weight and worse health state”. Also, in the series on Balb/c mice (i.p. every two days, day 14), the “lung findings (HE staining)” value is “alveolar wall thickening and increased numbers of lymphocytes”; the “toxicity to the heart, liver, spleen and stomach (HE staining)” value was “no significant toxicity”.

What is called IC50 is the point on the concentration scale where inhibition reaches its midpoint. A high value points to a need for much substance. What is called AUC(0-t) is the area under the concentration-time curve up to a stated or last time point. For orientation: microsomal CLint means a measure of how fast metabolising enzymes remove a compound, apart from limits set by blood flow. Low values mean greater metabolic stability, high ones faster metabolism.
